Active and inactive are the calls of the source. The calls are words filed in the database; no cut-off is given here.
Experiments:
[1] = Toxicity in BALB/c mouse infected with Trypanosomal Trypanosoma cruzi MHOM/Pe/2011/Arequipa(DTU V) assessed as effect on CK-MB level at 20 mg/kg, po administered for 5 days starting at 100 days post infection and measured after 2 days post treatment; type: organism-based; conditions: in vivo, 120 h, time 5 day
[2] = Selectivity index, ratio of IC50 for cytotoxicity against African green monkey Vero cells to IC50 for antitrypanosomal activity against Trypanosoma cruzi TINF/CH/1956/Tulahuen (DTU VI) blood stream trypomastigote form; type: toxicity, cell-based; conditions: read-out: Ratio IC50
Trypanosoma cruzi [3] = assay: Antitrypanosomal activity against Trypanosoma cruzi MHOM/Pe/2011/Arequipa(DTU V) epimastigote form assessed as disruption of acetate level at IC25 concentration incubated for 72 hrs by NMR spectrometric analysis; type: functional, organism-based
Trypanosoma cruzi [4] = assay: Antitrypanosomal activity against Trypanosoma cruzi MHOM/Pe/2011/Arequipa(DTU V) epimastigote form assessed as disruption of L-alanine level at IC25 concentration incubated for 72 hrs by NMR spectrometric analysis; type: functional, organism-based
[5] = Selectivity index, ratio of IC50 for cytotoxicity against African green monkey Vero cells to IC50 for antitrypanosomal activity against Trypanosoma cruzi TINF/CH/1956/Tulahuen (DTU VI) epimastigote form; type: toxicity, cell-based; conditions: read-out: Ratio IC50
[6] = Toxicity in BALB/c mouse infected with Trypanosomal Trypanosoma cruzi MHOM/Pe/2011/Arequipa(DTU V) assessed as effect on urea level at 20 mg/kg, po administered for 5 days starting at 100 days post infection and measured after 2 days post treatment; type: organism-based; conditions: in vivo, 120 h, time 5 day
[7] = Toxicity in BALB/c mouse infected with Trypanosomal Trypanosoma cruzi MHOM/Pe/2011/Arequipa(DTU V) assessed as effect on ALP level at 20 mg/kg, po administered for 5 days starting at 9 days post infection and measured after 2 days post treatment; type: organism-based; conditions: in vivo, 120 h, time 5 day
[8] = Selectivity index, ratio of IC50 for cytotoxicity against African green monkey Vero cells to IC50 for antitrypanosomal activity against Trypanosoma cruzi MHOM/Pe/2011/Arequipa(DTU V) amastigote form infected in Vero cells; type: toxicity, cell-based; conditions: read-out: Ratio IC50
[9] = Toxicity in BALB/c mouse infected with Trypanosomal Trypanosoma cruzi MHOM/Pe/2011/Arequipa(DTU V) assessed as effect on uric acid level at 20 mg/kg, po administered for 5 days starting at 9 days post infection and measured after 2 days post treatment; type: organism-based; conditions: in vivo, 120 h, time 5 day
Trypanosoma cruzi [10] = assay: Antitrypanosomal activity against Trypanosoma cruzi MHOM/Pe/2011/Arequipa(DTU V) epimastigote form assessed as disruption of succinic acid level at IC25 concentration incubated for 72 hrs by NMR spectrometric analysis; type: functional, organism-based
[11] = Selectivity index, ratio of IC50 for cytotoxicity against African green monkey Vero cells to IC50 for antitrypanosomal activity against Trypanosoma cruzi TINF/CH/1956/Tulahuen (DTU VI) amastigote form infected in Vero cells; type: toxicity, cell-based; conditions: read-out: Ratio IC50
[12] = Selectivity index, ratio of IC50 for cytotoxicity against African green monkey Vero cells to IC50 for antitrypanosomal activity against Trypanosoma cruzi IRHOD/CO/2008/SN3 (DTU I) blood stream trypomastigote form; type: toxicity, cell-based; conditions: read-out: Ratio IC50
[13] = Selectivity index, ratio of IC50 for cytotoxicity against African green monkey Vero cells to IC50 for antitrypanosomal activity against Trypanosoma cruzi IRHOD/CO/2008/SN3 (DTU I) amastigote form infected in Vero cells; type: toxicity, cell-based; conditions: read-out: Ratio IC50
[14] = Toxicity in BALB/c mouse infected with Trypanosomal Trypanosoma cruzi MHOM/Pe/2011/Arequipa(DTU V) assessed as effect on ALT/GPT level at 20 mg/kg, po administered for 5 days starting at 9 days post infection and measured after 2 days post treatment; type: organism-based; conditions: in vivo, 120 h, time 5 day
Trypanosoma cruzi [15] = assay: Antitrypanosomal activity against Trypanosoma cruzi MHOM/Pe/2011/Arequipa(DTU V) epimastigote form assessed as disruption of pyruvate level at IC25 concentration incubated for 72 hrs by NMR spectrometric analysis; type: functional, organism-based
Trypanosoma cruzi [16] = assay: Antitrypanosomal activity against Trypanosoma cruzi MHOM/Pe/2011/Arequipa(DTU V) amastigote form infected in BALB/c mouse assessed as reduction in spleen enlargement at 20 mg/kg, po administered for 5 days starting at 9 days post infection and measured after 145 days post infection; type: functional, organism-based; conditions: time 5.0 day
[17] = Toxicity in BALB/c mouse infected with Trypanosomal Trypanosoma cruzi MHOM/Pe/2011/Arequipa(DTU V) assessed as reduction in weight at 20 mg/kg, po administered for 5 days starting at 9 days post infection and measured up to 145 days post infection; type: organism-based; conditions: in vivo, 120 h, time 5 day
[18] = Selectivity index, ratio of IC50 for cytotoxicity against African green monkey Vero cells to IC50 for antitrypanosomal activity against Trypanosoma cruzi MHOM/Pe/2011/Arequipa(DTU V) blood stream trypomastigote form; type: toxicity, cell-based; conditions: read-out: Ratio IC50
[19] = Toxicity in BALB/c mouse infected with Trypanosomal Trypanosoma cruzi MHOM/Pe/2011/Arequipa(DTU V) assessed as effect on urea level at 20 mg/kg, po administered for 5 days starting at 9 days post infection and measured after 2 days post treatment; type: organism-based; conditions: in vivo, 120 h, time 5 day
Trypanosoma cruzi [20] = assay: Inhibition of Trypanosoma cruzi MHOM/Pe/2011/Arequipa(DTU V) epimastigote form Fe-SOD at 25 uM by UV-VIS spectrophotometric method relative to control
Trypanosoma cruzi [21] = assay: Antitrypanosomal activity against Trypanosoma cruzi IRHOD/CO/2008/SN3 (DTU I) blood stream trypomastigote form assessed as parasite growth inhibition incubated for 24 hrs by resazurin dye based assay; type: functional, organism-based
[22] = Toxicity in BALB/c mouse infected with Trypanosomal Trypanosoma cruzi MHOM/Pe/2011/Arequipa(DTU V) assessed as effect on ALT/GPT level at 20 mg/kg, po administered for 5 days starting at 100 days post infection and measured after 2 days post treatment; type: organism-based; conditions: in vivo, 120 h, time 5 day
[23] = biological target: Superoxide dismutase [Cu-Zn] (Homo sapiens, UniProt P00441); assay: Inhibition of human erythrocytes CuZn-SOD by UV-VIS spectrophotometric method; set-up: species or system Erythrocyte
Superoxide dismutase [Cu-Zn], sequence (P00441 whole entry): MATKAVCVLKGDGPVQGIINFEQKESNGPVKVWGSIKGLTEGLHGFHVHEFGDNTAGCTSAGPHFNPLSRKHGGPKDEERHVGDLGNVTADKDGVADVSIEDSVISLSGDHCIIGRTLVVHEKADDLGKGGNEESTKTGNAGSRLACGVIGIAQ

Trypanosoma cruzi [24] = assay: Antitrypanosomal activity against Trypanosoma cruzi MHOM/Pe/2011/Arequipa(DTU V) amastigote form infected in BALB/c mouse assessed as parasite free organ tissue ratio at 20 mg/kg, po administered for 5 days starting at 9 days post infection and measured up to 145 days post infection by PCR analysis relative to control; type: functional; conditions: time 5 day
[25] = Toxicity in BALB/c mouse infected with Trypanosomal Trypanosoma cruzi MHOM/Pe/2011/Arequipa(DTU V) assessed as reduction in survival at 20 mg/kg, po administered for 5 days starting at 9 days post infection and measured up to 145 days post infection; type: organism-based; conditions: in vivo, 120 h, time 5 day
[26] = Toxicity in BALB/c mouse infected with Trypanosomal Trypanosoma cruzi MHOM/Pe/2011/Arequipa(DTU V) assessed as effect on total bilirubin level at 20 mg/kg, po administered for 5 days starting at 9 days post infection and measured after 2 days post treatment; type: organism-based; conditions: in vivo, 120 h, time 5 day
Trypanosoma cruzi [27] = assay: Antitrypanosomal activity against Trypanosoma cruzi IRHOD/CO/2008/SN3 (DTU I) epimastigote form assessed as parasite growth inhibition incubated for 48 hrs by resazurin dye based assay; type: functional, organism-based
Trypanosoma cruzi [28] = assay: Antitrypanosomal activity against Trypanosoma cruzi MHOM/Pe/2011/Arequipa(DTU V) epimastigote form assessed as parasite growth inhibition incubated for 48 hrs by resazurin dye based assay; type: functional, organism-based
Trypanosoma cruzi [29] = assay: Inhibition of mitochondrial membrane potential in Trypanosoma cruzi MHOM/Pe/2011/Arequipa(DTU V) epimastigote form at IC25 concentration after 72 hrs by Rho (FITC-A) staining based flow cytometric analysis; type: functional

Compound	Activity [1]	selectivity ratio [2]	Activity (Trypanosoma cruzi [3])	Activity (Trypanosoma cruzi [4])	selectivity ratio [5]	Activity [6]	Activity [7]	selectivity ratio [8]	Activity [9]	Activity (Trypanosoma cruzi [10])	selectivity ratio [11]	selectivity ratio [12]	selectivity ratio [13]	Activity [14]	Activity (Trypanosoma cruzi [15])	Activity [17]	selectivity ratio [18]	Activity [19]	IC50 (Trypanosoma cruzi [21])	Activity [22]	other results
COC(=O)[C@]1(C)CCC[C@]2(C)C3=C(C=C[C@@H]12)C(=O)C(C(C)C)=CC3=O	Non-Toxic	> 40	inactive	inactive	> 15	Non-Toxic	Non-Toxic	> 40	Non-Toxic	Active	> 40	> 40	> 40	Non-Toxic	inactive	Non-Toxic	> 40	Non-Toxic	1.8 µM	Non-Toxic	Activity (Trypanosoma cruzi [16]): Active; inhibition (Trypanosoma cruzi [20]): 100%; IC50 [23]: > 100 µM; Activity (Trypanosoma cruzi [24]): 57.1%; Activity [25]: Non-Toxic; Activity [26]: Non-Toxic; IC50 (Trypanosoma cruzi [27]): 1.6 µM; IC50 (Trypanosoma cruzi [28]): 1.4 µM; inhibition (Trypanosoma cruzi [29]): 50%
CC(C)c1cc(C=O)c([C@@]2(C)CCCC(C)(C)C2=O)cc1O	Non-Toxic	> 40	inactive	inactive	> 15	Non-Toxic	Non-Toxic	> 40	Non-Toxic	Active	> 40	> 40	> 40	Non-Toxic	inactive	Non-Toxic	> 40	Non-Toxic	8.7 µM	Non-Toxic	IC50 [23]: > 100 µM; Activity (Trypanosoma cruzi [24]): 28.5%; Activity [25]: Non-Toxic; Activity [26]: Non-Toxic; IC50 (Trypanosoma cruzi [27]): 12.5 µM; IC50 (Trypanosoma cruzi [28]): 18.5 µM; inhibition (Trypanosoma cruzi [29]): 41.8%
